Here are results for three molecules from publication PMC5570900, “Exploiting a novel conformational switch to control innate immunity mediated by complement protein C3a” (Nature Communications, 2017).

One assay has as its system mast cells. In words: Mast cell stabilizer in BR103-induced rat paw edema. The class given is in vivo. The following applies: 20 mg/kg s.c., 30 min prior, 0.5 h. The procedure: Male Wistar rats (8–9 weeks) were injected with BR103 (3, 350 μg in 100 μL isotonic saline) into the plantar surface of both hind paw pads using a 30G needle. The inhibitor cromolyn (20 mg/kg in 5% DMSO) was injected subcutaneously 30 min before the agonist. The antagonist BR111 (6, 5–20 mg/kg in olive oil) was administered orally as a single dose 2 h before the agonist. Paw thickness and width were measured using digital calipers (WPI) at 0, 0.5, 2, 6 and 24 h after agonist BR103 administration. Hind paw size is expressed as % change in area from baseline after 0.5 h and then normalized against maximum swelling induced by agonist alone. Researchers were not blinded to treatments given. Rat paw tissue was collected and fixed in 4% paraformaldehyde (pH 7.4) for 2 h in the cold room (4 °C). The rat paw tissue was then transferred into falcon tubes containing 30% sucrose solution in PBS and left overnight in the cold room. The next day, rat paw tissue was embedded with the Optimal Cutting Temperature compound (OCT, Sakura Finetek, USA) and stored in the −80 °C freezer before being used for making cryo-sections for histological analysis. Frozen sections of 5 microns were prepared using a cryostat-microtome (Leica Biosystems, Germany) and stained using standard protocols on the same day. In normal histological staining, such as with alcian blue and safranin O and hematoxylin and eosin (H&E), samples were briefly washed with distilled water before staining. In alcian blue and safranin O, samples were stained with 0.1% alcian blue (Sigma-Aldrich, USA) and 0.5% safranin O (Sigma-Aldrich, USA) before being mounted in mounting medium. In H&E, samples were stained with hematoxylin (Sigma-Aldrich, USA) and 0.1% eosin (Sigma-Aldrich, USA) before being mounted in mounting medium. In immunohistochemistry, samples were briefly rinsed with PBS to remove OCT and incubated with blocking medium (PBS, 0.1% triton X-100, 10% horse serum) for 1 h at room temperature. Samples were incubated with primary antibody medium (PBS, 4% horse serum, 1:200 histamine or 1:200 of tryptase or 1:150 ED1 or 1:200 ED2 antibodies) overnight at 4 °C. The next day, samples were washed with PBS and were incubated with the secondary antibody medium (PBS, 4% horse serum, detection antibody 1:1000) for 1 h at room temperature. The samples were briefly rinsed, dried and counterstained with DAPI (Invitrogen, Australia). Primary antibodies for histamine (Sigma-Aldrich, USA, H2403, monoclonal rabbit anti-rat IgG, 1: 200), tryptase (Abcam, Australia, ab2378, monoclonal mouse anti-rat IgG, 1:200), ED1 (Serotec, UK, MCA341R, monoclonal mouse anti-rat, 1:150), ED2 (Serotec, UK, MCA3424R, monoclonal mouse anti-rat, 1:200) were purchased from commercial sources. Secondary detection antibody was purchased from (Invitrogen, Australia). ED1 & ED2 positive cells were quantified using FIJI/ImageJ 1.42q software, U.S. National Institutes of Health, Bethesda, MD, USA[44]. All microscope images were obtained using an Olympus BX-51 upright microscope with Olympus DP-71 12Mp colour camera, utilizing DP Capture and DP Manager software packages (Olympus, Tokyo, Japan). Researchers who performed histological analysis and scoring were blinded to the sample identity. Rat paw tissues were collected and immediately frozen with liquid nitrogen. Frozen rat paw tissues were cut into smaller pieces and mixed with 1 mL of TRIsure (Bioline, Australia) prior to homogenizing according to manufacturer’s instructions. […]

Another assay addresses T1, C5aR (Homo sapiens, UniProt P21730).
T1 construct: endogenous in cells; host or cells: primary human monocyte-derived macrophages (HMDMs)
T1 sequence (P21730 1-350): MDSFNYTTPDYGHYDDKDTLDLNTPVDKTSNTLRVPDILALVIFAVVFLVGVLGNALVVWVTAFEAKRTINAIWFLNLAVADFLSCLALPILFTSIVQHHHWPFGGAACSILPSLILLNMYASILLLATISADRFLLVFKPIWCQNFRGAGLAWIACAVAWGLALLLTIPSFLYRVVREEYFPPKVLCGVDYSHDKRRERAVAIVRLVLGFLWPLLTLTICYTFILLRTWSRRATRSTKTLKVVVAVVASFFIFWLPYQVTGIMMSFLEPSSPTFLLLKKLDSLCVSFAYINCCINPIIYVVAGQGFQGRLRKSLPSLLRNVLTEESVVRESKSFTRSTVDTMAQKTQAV
In words: [125I]-hC5a competition binding on HMDMs. The settings on record: [125I]-hC5a 25 pM. As to the method: Receptor binding was performed by ligand competition with labelled 80 pM [^125I]-C3a or 25 pM [^125I]-C5a (2200 Ci/mmol; Perkin Elmer, Torrance, CA, USA) on HMDMs (1.2 × 10^6 cells/ml). HMDMs were treated with [^125I]-C3a or [^125I]-C5a ± various concentrations of unlabelled C3a/C5a or experimental ligands were diluted with assay buffer (50 mM Tris, 3 mM MgCl2, 0.1 mM CaCl2, 0.5% (w/v) BSA, pH 7.4) for 60 min at room temperature. Unbound [^125I]-C3a or [^125I]-C5a was removed by filtration through glass microfibre filter GF/B (Whatman Iner. Ltd, England) and washed three times with cold buffer (50 mM Tris-HCl pH 7.4). Bound [^125I]-C3a or [^125I]-C5a were assessed by scintillation counting on Microbeta counter. Specific binding was defined as the difference between total binding and nonspecific binding as determined in the presence of 1 μM unlabelled C3a or C5a[4].

For `O=C(O)c1cc(=O)c2c(OCC(O)COc3cccc4oc(C(=O)O)cc(=O)c34)cccc2o1` [cromolyn], in the assay with mast cells, the “Effect on BR103-induced histamine expression in paw” value is on record as “reduced histamine expression”; the “Effect on BR103-induced infiltration of ED1+ macrophages” value was “reduced infiltration of inflammatory ED1^+ macrophages”; the “Effect on BR103-induced inflammatory gene expression (Il1β, Il6, Tnf, Ccl3, Mcp1)” value was “reduced expression of early response inflammatory genes”; the “Effect on BR103-induced mast cell activation and degranulation” value is on record as “attenuated BR103-induced increased activation”. For the same molecule, the “Effect on BR103-induced paw swelling” value with mast cells (BR103 350 µg/paw i.pl.) is “significant reduction in BR103-induced paw swelling at 0.5 h, almost back to baseline levels”.

As to “Ac-cyclo-(2,6)-Phe-[Orn-Pro-dCha-Trp-Arg] [Compound 3D53, reference compound]”, the “C5aR binding by competition with [125I]-hC5a” value at C5aR was “C5aR-binding”.

B1: hC5a: human complement protein C5a, ligand of C5aR (protein, UniProt P01031 678-751, looked up)
C5a anaphylatoxin: TLQKKIEEIAAKYKHSVVKKCCYDGACVNNDETCEQRAARISLGPRCIKAFTECCVVASQLRANISHKDMQLGR
modifications: C5a anaphylatoxin
notes: human complement protein C5a, ligand of C5aR
As for B1, in the assay with C5aR, the “C5aR binding by competition with [125I]-hC5a” value was “C5aR-binding”.
